From US8409580B2, “Therapeutic vaccine targeted against P-glycoprotein 170 for inhibiting multidrug resistance in the treatment of cancers” (AC Immune SA, priority 2003, dated 2013)
Ends that are not written are not given here.

Experiments:
[1] = trials for treatment of multidrug resistance (Stupp et al. 1998); cited from earlier work
[2] = system: P388R cells; conditions: mice, same cancer model, 100 mg/kg/day (Pierré et al. 1992); cited from earlier work
[3] = system: cancer cells; conditions: by means of an increase in the invasive potential of the cancer cells; cited from earlier work
[4] = system: mice; assay: Immunogenicity of di- and tetrapalmitoylated conjugates in liposomes: antibody detection by Dot Blot and antibody titer; type: in vivo
Excerpt: In order to further understand the degree of immunogenicity of the conjugates according to the invention, two types of conjugates were produced and tested. The first type of conjugate corresponds to the synthetic sequences of the peptides derived from the extracellular loops of the murine P-170 protein, covalently coupled to four molecules of fatty acid containing a carbon chain of between C12 and C24, per molecule of peptide. The second type of conjugate is made up of a peptide coupled only to two molecules of fatty acid. This study is illustrated by means of a specific example of dipalmitoylated and tetrapalmitoylated conjugates.
Table III describes the sequences of the di- and tetrapalmitoylated conjugates corresponding to loops 1, 2 and 4 of the murine P-170 protein and also their immunogenic capacity measured through the detection of antibodies by the Dot Blot technique and also the antibody titer by fluorescence units. […] The mpp4 and mpp2 conjugates engender an immune response with an antibody titer in the region of 400 fluorescence units. […] In fact, the synthesis of this loop is very hard and long since there are many possible chemical terminations, or chemical rebridging which could explain the lack of immune response of this first batch of peptides. For the animal immunization trials, a further synthesis of the peptides, in particular of loop 1, was therefore carried out.
The conjugates according to the invention serving as antigenic molecules, diluted in PBS, are firstly deposited at ambient temperature onto nitrocellulose membranes. After 30 minutes, these antigenic molecules are blocked with 3 ml of a solution containing PBS-5% skim milk. The membranes are incubated for 2 hours at ambient temperature, without washing, with 24 μl of murine serum prediluted volume-for-volume with PBS, in 2 ml of PBS containing 1% of skim milk and 0.1% of tween 20. Said murine serum was taken during a period of 15 to 45 days after the third immunization. After three washes in PBS-1% skim milk-0.1% tween 20, the membranes are sequentially incubated for 1 hour at ambient temperature, in 3 ml of PBS-1% skim milk-0.1% tween 20 containing the peroxydase anti-mouse secondary antibody diluted to 1/3000, and then after 2 washes, in 3 ml of PBS-1% skim milk-0.1% tween 20. The membranes are then washed once for 10 minutes in PBS alone and kept in a refrigerator at 4° C. overnight, in 500 μl of PBS. A chemoluminescence peroxydase substrate (ECL™ kit, […] Pharmacie Biotech) is deposited at the surface of the membranes (0.125 ml/cm^2), and left for one minute, and the membranes are then drained off and placed in a “cold” cassette between 2 films of Saran®. The membranes are immediately exposed by autoradiography, the emitted light resulting from the reaction of oxidation of the luminol by the peroxydase being collected on KODAK X-OMAT films with varying times from a few minutes to 1 hour, depending on the strength of the signal. The antibody titers are estimated using a densitometer suitable for the above system. The sensitivity of the chemoluminescence reaction has a threshold for detection of the induced antibodies evaluated at 0.2 ng/ml under the experimental conditions.

[5] = system: B6D2F1 mice; assay: Immune response in vivo in B6D2F1 mice immunized with the vaccine preparations (anti-mpp1, mpp2, mpp4 antibody isotypes, Dot Blot); conditions: further synthesis of the peptide; compared with mpp2 and mpp4
Method: The mice were immunized three times, two weeks apart, by intraperitoneal injection with 200 μl of vaccine composition. This experimental protocol is carried out for the four preparations on groups of nine B6D2F1 mice (Iffa Credo, L'Arbresle, France).
To quantify by Dot Blot the various immunoglobulins induced by the immunization, 100 μl of blood were taken, from each mouse, from the retroorbital sinus one day before the booster and 15 days after the final injection. Each blood sample was then centrifuged and the serum isolated was used for the quantification.
The conjugates according to the invention serving as antigenic molecules, diluted in PBS, are firstly deposited at ambient temperature onto nitrocellulose membranes. After 30 minutes, these antigenic molecules are blocked with 3 ml of a solution containing PBS-5% skim milk. The membranes are incubated for 2 hours at ambient temperature, without washing, with 24 μl of murine serum prediluted volume-for-volume with PBS, in 2 ml of PBS containing 1% of skim milk and 0.1% of tween 20. Said murine serum was taken during a period of 15 to 45 days after the third immunization. […] The sensitivity of the chemoluminescence reaction has a threshold for detection of the induced antibodies evaluated at 0.2 ng/ml under the experimental conditions. […]

[6] = mice injected with liposomes containing the conjugate, first peptide synthesis

Molecule: C=CCNc1nc(NCC=C)nc(N2CCC(NCC(c3ccc(F)cc3)c3ccc(F)cc3)CC2)n1 [S9788, 6-[4-[2,2-di-(4-fluorophenyl)ethylamino]-1-piperidinyl]-N,N′-di-2-propenyl-1,3,5-triazine-2,4-diamine]
- toxicity limiting use in clinical trials [1]: cardiac toxicity, ventricular arrhythmia and torsade de pointe
- increase in survival [2]: 49%

Molecule: OCCN1CCN(CC/C=C2\c3ccccc3Sc3ccc(C(F)(F)F)cc32)CC1 [trans-flupenthixol]
- effect on mortality [3]: can accelerate mortality

Molecule: G-KVLTSFTNKELQAYAK-G-K-NH2 (GKVLTSFTNKELQAYAKGK-NH2; also: two palmitic acids; listed as Mus musculus) [mpp′2]
- Ac titer fluorescence [4, 6]: <10 fluorescence units

Molecule: G-SRDDDMETKRQNEN-G-K-NH2 (GSRDDDMETKRQNENGK-NH2; also: two palmitic acids; listed as Mus musculus) [mpp′4]
- Ac titer fluorescence [4, 6]: 100 fluorescence units
- antibody titer relative to the titer induced by mpp4 ([4]; same sequence with two versus four palmityl residues): four times lower

Molecule: K-G-GNMTDSFTKAEASILPSITNQSGPNSTLIISNSSLEEE-G-K-K-NH2 (KGGNMTDSFTKAEASILPSITNQSGPNSTLIISNSSLEEEGKK-NH2; also: four palmitic acids; listed as Mus musculus) [mpp1]
- antibody titers induced by the conjugate [5]: significant and comparable in value to the antibody titers detected for the mpp2 and mpp4 conjugates
- Ac titer fluorescence [4, 6]: <10 fluorescence units
- Detection of antibodies by Dot Blot [4, 6]: no antibody was detected
